We go through 13 compounds from patent publication US8470828B2, “Anellated pyridine compounds” (Hoffmann-La Roche Inc., priority 2010, dated 2013).

For one data set, the target named is human 5-HT2A receptor (Homo sapiens, UniProt P28223). The data set is described as follows: Radioligand binding to cloned human 5-HT2A receptor expressed in HEK-293 EBNA cells ([3H]-ketanserin).
In another data set the target is T1, human D2 receptor (Homo sapiens, UniProt P14416).
T1 construct: expressed in transfected cells; host or cells: HEK293 EBNA cells, transient transfection; membrane preparation
T1 sequence (P14416 whole entry): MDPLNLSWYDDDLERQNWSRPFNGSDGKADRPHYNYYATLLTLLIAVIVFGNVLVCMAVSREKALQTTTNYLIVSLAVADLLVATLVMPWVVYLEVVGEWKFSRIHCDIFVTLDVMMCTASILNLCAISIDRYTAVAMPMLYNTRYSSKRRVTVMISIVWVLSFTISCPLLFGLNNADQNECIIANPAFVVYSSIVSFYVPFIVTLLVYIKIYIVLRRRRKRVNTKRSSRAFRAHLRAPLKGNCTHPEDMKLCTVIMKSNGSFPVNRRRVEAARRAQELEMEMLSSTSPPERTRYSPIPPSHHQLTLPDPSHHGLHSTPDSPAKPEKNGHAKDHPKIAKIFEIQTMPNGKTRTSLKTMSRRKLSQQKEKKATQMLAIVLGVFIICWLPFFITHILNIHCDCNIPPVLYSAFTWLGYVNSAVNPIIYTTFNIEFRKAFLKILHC
The data set is described as follows: Radioligand binding to cloned human D2 receptor expressed in HEK-293 EBNA cells ([3H]-spiperone). The settings on record: HEK293 EBNA cell membranes, approximately 0.7 nM [3H]-spiperone, 1 h at RT.

Another data set addresses human D3 receptor (Homo sapiens, UniProt P35462). The data set is described as follows: Radioligand binding to cloned human D3 receptor expressed in HEK-293 EBNA cells ([3H]-spiperone).

SMILES strings stand for the structures.

human D3 receptor, sequence (P35462 whole entry): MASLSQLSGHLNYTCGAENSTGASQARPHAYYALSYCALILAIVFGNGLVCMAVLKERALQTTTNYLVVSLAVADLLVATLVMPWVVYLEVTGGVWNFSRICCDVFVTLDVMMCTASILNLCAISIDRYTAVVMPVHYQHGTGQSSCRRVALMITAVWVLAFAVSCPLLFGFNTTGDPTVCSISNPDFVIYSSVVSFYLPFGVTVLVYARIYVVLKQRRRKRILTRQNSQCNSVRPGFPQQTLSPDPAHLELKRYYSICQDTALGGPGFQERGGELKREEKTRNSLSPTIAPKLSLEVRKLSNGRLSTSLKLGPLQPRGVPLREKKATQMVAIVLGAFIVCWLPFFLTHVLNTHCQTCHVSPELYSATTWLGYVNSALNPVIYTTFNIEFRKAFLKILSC
human 5-HT2A receptor, sequence (P28223 whole entry): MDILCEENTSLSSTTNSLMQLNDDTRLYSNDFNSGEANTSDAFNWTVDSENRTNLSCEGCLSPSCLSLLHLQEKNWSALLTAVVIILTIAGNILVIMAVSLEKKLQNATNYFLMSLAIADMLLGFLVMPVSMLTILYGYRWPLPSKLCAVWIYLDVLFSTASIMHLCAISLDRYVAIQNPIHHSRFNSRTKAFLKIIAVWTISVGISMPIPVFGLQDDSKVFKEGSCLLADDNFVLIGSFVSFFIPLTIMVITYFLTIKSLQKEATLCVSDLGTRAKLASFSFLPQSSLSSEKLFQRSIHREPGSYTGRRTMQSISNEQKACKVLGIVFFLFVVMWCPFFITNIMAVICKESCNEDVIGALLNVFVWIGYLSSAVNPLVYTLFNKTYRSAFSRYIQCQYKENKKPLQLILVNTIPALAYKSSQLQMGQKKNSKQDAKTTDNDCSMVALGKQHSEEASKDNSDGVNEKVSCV
Description for human 5-HT2A receptor: HEK293 EBNA cells were transiently transfected with expression plasmids encoding for the human D2 or D3 or for the human 5-HT2A receptor, respectively. The cells were harvested 48 h post-transfection, washed three times with cold PBS and stored at −80° C. prior to use. The pellet was suspended in cold 50 mM Tris-HCl buffer comprising 10 mM EDTA (pH 7.4) and was homogenized with a Polytron (Kinematica A G, Basel, Switzerland) for 20-30 sec at 12.000 rpm. After centrifugation at 48.000×g for 30 min at 4° C., the pellet was resuspended in cold 10 mM Tris-HCl buffer comprising 0.1 mM EDTA (pH 7.4), homogenized, and centrifuged as above. This pellet was further resuspended in a smaller volume of ice cold 10 mM Tris-HCl buffer comprising 0.1 mM EDTA (pH 7.4) and homogenized with a Polytron for 20-30 sec at 12.000 rpm. The protein content of this homogenate was determined with the Bio-Rad (Bradford) Protein Assay (Biorad Laboratories GmbH, München, Germany) according to the instructions of the manufacturer using gamma globulin as the standard. This homogenate was stored at −80° C. in aliquots and thawed immediately prior to use.
Aliquots of membrane preparations were thawed at RT, resupended in assay buffer (D2, D3: 50 mM Tris-HCl, 120 mM NaCl, 5 mM MgCl2, 1 mM EDTA, 5 mM KCl, 1.5 mM CaCl2, pH=7.4; 5-HT2A: 50 mM Tris-HCl, 10 mM MgCl2, 1 mM EGTA, pH=7.4), homogenized with a Polytron for 20-30 sec at 12.000 rpm and adjusted to a final concentration of approximately 7.5 μg protein/well (D2, D3) and 15 μg protein/well (5-HT2A), respectively.
The binding affinity (Ki) of the compounds was determined using radioligand binding. Membranes were incubated in a total volume of 200 μl with a fixed concentration of radioligand (final concentration approximately 0.7 nM [^3H]-spiperone for D2, 0.5 nM [^3H]-spiperone for D3, and 1.1 nM [^3H]-ketanserin for 5-HT2A) and ten concentrations of test compound in ranging between 10 μM-0.1 nM for 1 h at RT. At the end of the incubation, the reaction mixtures were filtered on to unifilter 96-well white microplates with bonded GF/C filters (Packard BioScience, Zürich, Switzerland; preincubated for 1 h in 0.1% polyethylenimine (PEI) in assay buffer) with a Filtermate 196 harvester (Packard BioScience) and washed 3 times with cold assay buffer. The nonspecific binding was determined with equally composed reaction mixtures in the presence of 10 μM unlabelled spiperone. Per well 45 μl of Microscint 40 (Perkin Elmer, Schwerzenbach, Switzerland) was added, plates for sealed, shaken for 20 min and counted for 3 min on a Topcount Microplate Scintillation Counter (Can berra Packard S A, Zürich, Switzerland) with quenching correction.
The CPM value for each duplicate of a concentration of competing compound was averaged (y1), then the % specific binding was calculated according to the equation (((y1−non-specific)/(total binding−non-specific))×100). Graphs were plotted with the % specific binding using XLfit, a curve fitting program that iteratively plots the data using Levenberg-Marquardt algorithm. The single site competition analysis equation used was y=A+((B−A)/(1+((x/C)D))), where y is the % specific binding, A is the minimum y, B is the maximum y, C is the IC50, x is the log 10 of the concentration of the competing compound and D is the slope of the curve (the Hill Coefficient). […] The affinity constant (Ki) was calculated using the Cheng-Prusoff equation Ki=(IC50/1+([L]/Kd), where [L] is the concentration of radioligand and Kd is the dissociation constant of the radioligand at the receptor as determined by the saturation isotherm.

As usually defined, the Ki is a measure of affinity in units of concentration, obtained from inhibition or displacement. Read a high Ki as weaker binding. As usually defined, the melting point is the temperature, or range, at which the solid turns liquid. `CC(C)(C)CC(=O)N[C@H]1CC[C@H](CCN2CCN(c3nccc4c3OCC4)CC2)CC1` [Example 89, trans-N-(4-{2-[4-(2,3-Dihydro-furo[2,3-c]pyridin-7-yl)-piperazin-1-yl]-ethyl}-cyclohexyl)-3,3-dimethyl-butyramide] returned a melting point of 193 °C. The same compound had a Ki on human 5-HT2A receptor of 0.0588 µM. Besides, the Ki at human D2 receptor worked out at 0.435 µM. Also, the Ki at human D3 receptor came out at 0.0151 µM.

Turning to `CC(C)(C)C(=O)N[C@H]1CC[C@H](CCN2CCN(c3nccc4c3OCC4)CC2)CC1` [Example 90, trans-N-(4-{2-[4-(2,3-Dihydro-furo[2,3-c]pyridin-7-yl)-piperazin-1-yl]-ethyl}-cyclohexyl)-2,2-dimethyl-propionamide], the melting point was found to be 194.5 °C. Moreover, at human 5-HT2A receptor, the inhibition constant Ki turned out to be 0.0489 µM. The same compound had a Ki on human D2 receptor of 0.671 µM. In addition, the affinity at human D3 receptor corresponds to a Ki of 0.0505 µM.

For the compound `C[C@]1(O)CC[C@H](C(=O)N[C@H]2CC[C@H](CCN3CCN(c4nccc5c4OCC5)CC3)CC2)CC1` [Example 91, trans-4-Hydroxy-4-methyl-cyclohexanecarboxylic acid trans-(4-{2-[4-(2,3-dihydro-furo[2,3-c]pyridin-7-yl)-piperazin-1-yl]-ethyl}-cyclohexyl)-amide], the melting point was 172.5 °C. In addition, affinity on human 5-HT2A receptor was put at a Ki of 0.032 µM. The compound also showed a Ki on human D2 receptor of 0.481 µM. Moreover, the affinity on human D3 receptor corresponds to a Ki of 0.0186 µM.

`CO[C@H]1CC[C@H](CC(=O)N[C@H]2CC[C@H](CCN3CCN(c4nccc5c4OCC5)CC3)CC2)CC1` [Example 92, trans-N-(4-{2-[4-(2,3-Dihydro-furo[2,3-c]pyridin-7-yl)-piperazin-1-yl]-ethyl}-cyclohexyl)-trans-2-(4-methoxy-cyclohexyl)-acetamide] yielded a melting point of 188.5 °C. Further, on human 5-HT2A receptor, the Ki was 0.0533 µM. The same compound came in with a Ki at human D2 receptor of 1.75 µM. The compound further came in with a Ki at human D3 receptor of 0.0122 µM.

The compound `C[C@]1(O)CC[C@@H](C(=O)N[C@H]2CC[C@H](CCN3CCN(c4nccc5c4OCC5)CC3)CC2)CC1` [Example 93, cis-4-Hydroxy-4-methyl-cyclohexanecarboxylic acid trans-(4-{2-[4-(2,3-dihydro-furo[2,3-c]pyridin-7-yl)-piperazin-1-yl]-ethyl}-cyclohexyl)-amide] displayed a melting point of 219 °C. In addition, the Ki on human 5-HT2A receptor was 0.0307 µM. This compound also showed a Ki on human D2 receptor of 0.832 µM. Moreover, on human D3 receptor, the Ki was determined as 0.0384 µM.

`CN(C)C(=O)N[C@H]1CC[C@H](CCN2CCN(c3nccc4c3OCC4)CC2)CC1` [Example 94, trans-3-(4-{2-[4-(2,3-Dihydro-furo[2,3-c]pyridin-7-yl)-piperazin-1-yl]-ethyl}-cyclohexyl)-1,1-dimethyl-urea] displayed a melting point of 217.5 °C. The same compound registered a Ki at human 5-HT2A receptor of 0.135 µM. In addition, the Ki at human D2 receptor turned out to be 0.429 µM. The Ki on human D3 receptor came to 0.082 µM.

Consider `CN(C)S(=O)(=O)N[C@H]1CC[C@H](CCN2CCN(c3nccc4c3OCC4)CC2)CC1` [Example 95, N′-(trans-4-{2-[4-(2,3-Dihydro-furo[2,3-c]pyridin-7-yl)-piperazin-1-yl]-ethyl}cyclohexyl)-N,N-dimethylsulfamide], for which the melting point is 128 °C. Also, the affinity at human 5-HT2A receptor corresponds to a Ki of 0.0311 µM. The compound also returned an inhibitory constant (Ki) on human D2 receptor of 0.641 µM. At human D3 receptor, this compound had a Ki of 0.0108 µM.

In turn, `O=S(=O)(N[C@H]1CC[C@H](CCN2CCN(c3nccc4c3OCC4)CC2)CC1)c1ccc(F)cc1` [Example 96, trans-N-(4-{2-[4-(2,3-Dihydro-furo[2,3-c]pyridin-7-yl)-piperazin-1-yl]-ethyl}-cyclohexyl)-4-fluoro-benzenesulfonamide] showed a melting point of 148 °C. For the same compound, at human 5-HT2A receptor, the Ki amounted to 0.204 µM. Also, on human D2 receptor, the affinity corresponds to a Ki of 0.2 µM. Moreover, at human D3 receptor, the Ki worked out at 0.00527 µM.

Consider `O=C(CC1COC1)N[C@H]1CC[C@H](CCN2CCN(c3nccc4c3OCC4)CC2)CC1` [Example 98, trans-N-(4-{2-[4-(2,3-Dihydro-furo[2,3-c]pyridin-7-yl)-piperazin-1-yl]-ethyl}-cyclohexyl)-2-oxetan-3-yl-acetamide], for which the melting point turned out to be 175 °C. On human 5-HT2A receptor, this compound gave a Ki of 0.0316 µM. Further, the Ki at human D2 receptor was 0.42 µM. This compound also displayed a Ki at human D3 receptor of 0.00488 µM.

`O=S(=O)(N[C@H]1CC[C@H](CCN2CCN(c3nccc4c3OCC4)CC2)CC1)c1ccccc1` [Example 99, trans-N-(4-{2-[4-(2,3-Dihydro-furo[2,3-c]pyridin-7-yl)-piperazin-1-yl]-ethyl}-cyclohexyl)-benzenesulfonamide] gave a melting point of 122.5 °C. Besides, the Ki on human 5-HT2A receptor was 0.151 µM. The compound also gave a Ki at human D2 receptor of 0.233 µM. The same compound displayed a Ki at human D3 receptor of 0.006 µM.

Compound `CO[C@H](C)C(=O)N[C@H]1CC[C@H](CCN2CCN(c3nccc4c3OCC4)CC2)CC1` [Example 100, trans-(R)—N-(4-{2-[4-(2,3-Dihydro-furo[2,3-c]pyridin-7-yl)-piperazin-1-yl]-ethyl}-cyclohexyl)-2-methoxy-propionamide] displayed a melting point of 170.5 °C. The compound further came in with an inhibitory constant (Ki) on human 5-HT2A receptor of 0.0229 µM. The affinity on human D2 receptor corresponds to a Ki of 0.714 µM. This compound gave a Ki at human D3 receptor of 0.0309 µM.

As to `O=C(CC1(O)CCC1)N[C@H]1CC[C@H](CCN2CCN(c3nccc4c3OCC4)CC2)CC1` [Example 102, trans-N-(4-{2-[4-(2,3-Dihydro-furo[2,3-c]pyridin-7-yl)-piperazin-1-yl]-ethyl}-cyclohexyl)-2-(1-hydroxy-cyclobutyl)-acetamide], the melting point amounted to 155 °C. Besides, affinity at human 5-HT2A receptor was put at a Ki of 0.0506 µM. Also, the Ki on human D2 receptor came to 0.478 µM. The Ki on human D3 receptor was 0.0118 µM.

In turn, `CC[C@@H](O)CC(=O)N[C@H]1CC[C@H](CCN2CCN(c3nccc4c3OCC4)CC2)CC1` [Example 103, (R)-3-Hydroxy-pentanoic acid trans-(4-{2-[4-(2,3-dihydro-furo[2,3-c]pyridin-7-yl)-piperazin-1-yl]-ethyl}-cyclohexyl)-amide] gave a melting point of 146 °C. Also, affinity on human 5-HT2A receptor was put at a Ki of 0.113 µM. Further, at human D2 receptor, the Ki came out at 0.874 µM. Also, the Ki at human D3 receptor is 0.0201 µM.
